Among the data in US20110086759A1, “CHEMICAL COMPOUNDS” (SYNGENTA CROP PROTECTION, INC., priority 2007, published 2011) are pest or weed control values, retold here.

Common to all, as to type: in vivo
Test [1] deals with Amaranthus retoflexus (AMARE). In words: Pre-emergence biological efficacy, glasshouse pot test. The settings on record: Amaranthus retroflexus, 312 h. As for the experimental part: (§1) Seeds of Alopecurus myosuroides (ALOMY), Setaria faberi (SETFA), Echinochloa crus-galli (ECHCG), Solanum nigrum (SOLNI), Amaranthus retoflexus (AMARE) and Ipomea hederaceae (IPOHE) were sown in standard soil in pots. After cultivation for one day under controlled conditions in a glasshouse (at 24/16° C., day/night; 14 hours light; 65% humidity), the plants were sprayed with an aqueous spray solution derived from the formulation of the technical active ingredient in acetone/water (50:50) solution containing 0.5% Tween 20 (polyoxyethelyene sorbitan monolaurate, CAS RN 9005-64-5) to give a final dose of 1000 or 250 g/ha of test compound.
(§2) The test plants were then grown under controlled conditions in the glasshouse (at 24/16° C., day/night; 14 hours light; 65% humidity) and watered twice daily. After 13 days the test was evaluated (100=total damage to plant; 0=no damage to plant).

Test [2] has as its system Setaria faberi (SETFA). Described as above. The following applies: 312 h. How it is done: as §1, §2
In test [3] the test system is Ipomea hederaceae (IPOHE). The description is as above. The following applies: Ipomoea hederacea, 312 h. As for the experimental part:
as §1, §2

Test [4] has as its system Solanum nigrum (SOLNI). The description is as above. The following applies: 312 h. As for the experimental part: as §1, §2
The test system of test [5] is Alopecurus myosuroides (ALOMY). The description is as above. The settings on record: 312 h. How it is done: as §1, §2
In test [6] the test system is Echinochloa crus-galli (ECHCG). The test is described as above. The settings on record: 312 h. How it is done:
as §1, §2

The subject of test [7] is Amaranthus retoflexus (AMARE). Put plainly: Post-emergence biological efficacy, glasshouse pot test. The settings on record: Amaranthus retroflexus, 312 h. As for the experimental part: as §1, with “8 days” for “one day”
(§3) The test plants were then grown on under controlled conditions in a glasshouse (at 24/16° C., day/night; 14 hours light; 65% humidity) and watered twice daily. After 13 days the test was evaluated (100=total damage to plant; 0=no damage to plant).

Test [8] relates to Setaria faberi (SETFA). The test is described as above. The settings on record: 312 h. How it is done: as §1, with “8 days” for “one day”
as §3

Test [9] has as its system Ipomea hederaceae (IPOHE). The description is as above. The settings on record: Ipomoea hederacea, 312 h. How it is done: as §1, with “8 days” for “one day”
as §3

The subject of test [10] is Solanum nigrum (SOLNI). Described as above. The following applies: 312 h. How it is done: as §1, with “8 days” for “one day”
as §3

Test [11] has as its system Alopecurus myosuroides (ALOMY). The test is described as above. The following applies: 312 h. As for the experimental part:
as §1, with “8 days” for “one day”
as §3

Test [12] has as its system Echinochloa crus-galli (ECHCG). The description is as above. The following applies: 312 h. How it is done: as §1, with “8 days” for “one day”
as §3

[13] abbreviates: pre-emergence, 1,000 g/ha, evaluated after 13 days (100=total damage; 0=no damage), read-out: Percentage damage AMARE.
The mark [14] stands for this setting: pre-emergence, 1,000 g/ha, evaluated after 13 days (100=total damage; 0=no damage), read-out: Percentage damage SETFA.
Where [15] appears, read: pre-emergence, 1,000 g/ha, evaluated after 13 days (100=total damage; 0=no damage), read-out: Percentage damage IPOHE.
Setting [16] is: pre-emergence, 1,000 g/ha, evaluated after 13 days (100=total damage; 0=no damage), read-out: Percentage damage SOLNI.
The mark [17] stands for this setting: pre-emergence, 1,000 g/ha, evaluated after 13 days (100=total damage; 0=no damage), read-out: Percentage damage ALOMY.
Setting [18] is: pre-emergence, 1,000 g/ha, evaluated after 13 days (100=total damage; 0=no damage), read-out: Percentage damage ECHCG.
The mark [19] stands for this setting: post-emergence, 1,000 g/ha, evaluated after 13 days (100=total damage; 0=no damage), read-out: Percentage damage caused to weed species, AMARE.
[20] abbreviates: post-emergence, 1,000 g/ha, evaluated after 13 days (100=total damage; 0=no damage), read-out: Percentage damage caused to weed species, SETFA.
Setting [21] is: post-emergence, 1,000 g/ha, evaluated after 13 days (100=total damage; 0=no damage), read-out: Percentage damage caused to weed species, IPOHE.
Where [22] appears, read: post-emergence, 1,000 g/ha, evaluated after 13 days (100=total damage; 0=no damage), read-out: Percentage damage caused to weed species, SOLNI.
The mark [23] stands for this setting: post-emergence, 1,000 g/ha, evaluated after 13 days (100=total damage; 0=no damage), read-out: Percentage damage caused to weed species, ALOMY.
Where [24] appears, read: post-emergence, 1,000 g/ha, evaluated after 13 days (100=total damage; 0=no damage), read-out: Percentage damage caused to weed species, ECHCG.
The mark [25] stands for this setting: pre-emergence, rate 1,000 g/ha, evaluated after 13 days (100=total damage to plant; 0=no damage), read-out: Percentage damage caused to weed species, AMARE.
Where [26] appears, read: pre-emergence, rate 1,000 g/ha, evaluated after 13 days (100=total damage to plant; 0=no damage), read-out: Percentage damage caused to weed species, SETFA.
The mark [27] stands for this setting: pre-emergence, rate 1,000 g/ha, evaluated after 13 days (100=total damage to plant; 0=no damage), read-out: Percentage damage caused to weed species, IPOHE.
Where [28] appears, read: pre-emergence, rate 1,000 g/ha, evaluated after 13 days (100=total damage to plant; 0=no damage), read-out: Percentage damage caused to weed species, SOLNI.
Setting [29] is: pre-emergence, rate 1,000 g/ha, evaluated after 13 days (100=total damage to plant; 0=no damage), read-out: Percentage damage caused to weed species, ALOMY.
Where [30] appears, read: pre-emergence, rate 1,000 g/ha, evaluated after 13 days (100=total damage to plant; 0=no damage), read-out: Percentage damage caused to weed species, ECHCG.
Where [31] appears, read: Rate 1,000 g/ha, post-emergence spray, evaluated after 13 days (100=total damage to plant; 0=no damage to plant), read-out: Percentage damage caused to weed species, post-emergence, AMARE.
The mark [32] stands for this setting: Rate 1,000 g/ha, post-emergence spray, evaluated after 13 days (100=total damage to plant; 0=no damage to plant), read-out: Percentage damage caused to weed species, post-emergence, SETFA.
Setting [33] is: Rate 1,000 g/ha, post-emergence spray, evaluated after 13 days (100=total damage to plant; 0=no damage to plant), read-out: Percentage damage caused to weed species, post-emergence, IPOHE.
Where [34] appears, read: Rate 1,000 g/ha, post-emergence spray, evaluated after 13 days (100=total damage to plant; 0=no damage to plant), read-out: Percentage damage caused to weed species, post-emergence, SOLNI.
Setting [35] is: Rate 1,000 g/ha, post-emergence spray, evaluated after 13 days (100=total damage to plant; 0=no damage to plant), read-out: Percentage damage caused to weed species, post-emergence, ALOMY.
The mark [36] stands for this setting: Rate 1,000 g/ha, post-emergence spray, evaluated after 13 days (100=total damage to plant; 0=no damage to plant), read-out: Percentage damage caused to weed species, post-emergence, ECHCG.

Turning to `COC(=O)c1nc(C2CC2)nc(NCC2CC2)c1Cl` [Compound 4-43, 5-Chloro-2-cyclopropyl-4-cyclopropylmethyl-amino-6-methoxycarbonyl-pyrimidine], the pest or weed control at 1000 g/ha came to 90% in test [1] (setting [13]); 70% in the test with Setaria faberi (SETFA) [2] (setting [14]); 80% in [3] (setting [15]); 90% in the test with Solanum nigrum (SOLNI) [4] (setting [16]); 70% in test [5] (setting [17]); 70% in test [6] (setting [18]). The pest or weed control at 1000 g/ha is 100% in [7] (setting [19]); 100% with Setaria faberi (SETFA) [8] (setting [20]); 100% in [9] (setting [21]); 90% with Solanum nigrum (SOLNI) [10] (setting [22]); 60% in [11] (setting [23]); 70% in test [12] (setting [24]).
As to `COC(=O)c1nc(C2CC2)nc(N[C@@H](Cc2ccccc2)C(=O)OC(C)(C)C)c1Cl` [4-293 (S), 4-[(1S)-1-^tButoxycarbonyl-2-phenyl-ethylamino]-5-chloro-2-cyclopropyl-6-methoxycarbonyl-pyrimidine], the pest or weed control at 1000 g/ha in [1] (setting [25]) is 40%; in the test with Setaria faberi (SETFA) [2] (setting [26]), 0%; in test [3] (setting [27]), 60%; in the test with Solanum nigrum (SOLNI) [4] (setting [28]), 50%; in test [5] (setting [29]), 10%; in test [6] (setting [30]), 20%. Besides, the pest or weed control at 1000 g/ha in [7] (setting [31]) was determined as 100%; in the test with Setaria faberi (SETFA) [8] (setting [32]) it was 40%; in test [9] (setting [33]), 80%; in the test on Solanum nigrum (SOLNI) [10] (setting [34]), 80%; in test [11] (setting [35]), 10%; in test [12] (setting [36]) it was 20%.
`CCC(C)N(Cc1ccccc1)c1nc(C2CC2)nc(C(=O)OC)c1Cl` (stereo not drawn) [Compound 148-60, 4-(N-But-2-yl-N-phenylmethyl-amino)-5-chloro-2-cyclopropyl-6-methoxycarbonyl-pyrimidine]: the pest or weed control at 1000 g/ha is 80% in test [1] (setting [25]); 0% with Setaria faberi (SETFA) [2] (setting [26]); 30% in [3] (setting [27]); 80% in the test with Solanum nigrum (SOLNI) [4] (setting [28]); 0% in test [5] (setting [29]); 0% in test [6] (setting [30]). Also, the pest or weed control at 1000 g/ha in [7] (setting [31]) is 100%; with Setaria faberi (SETFA) [8] (setting [32]), 40%; in [9] (setting [33]) it was 90%; in the test with Solanum nigrum (SOLNI) [10] (setting [34]) it was 80%; in test [11] (setting [35]), 10%; in test [12] (setting [36]), 0%.
`COC(=O)c1nc(C2CC2)nc(NCC2CCCO2)c1Cl` (stereo not drawn) [Compound 4-53, 5-Chloro-2-cyclopropyl-6-methoxy carbonyl-4-(tetrahydrofuran-2-ylmethylamino)-pyrimidine]: the pest or weed control at 1000 g/ha was determined as 60% in [1] (setting [13]); 0% in the test with Setaria faberi (SETFA) [2] (setting [14]); 60% in [3] (setting [15]); 40% in the test on Solanum nigrum (SOLNI) [4] (setting [16]); 10% in [5] (setting [17]); 0% in test [6] (setting [18]). In addition, the pest or weed control at 1000 g/ha in [7] (setting [19]) worked out at 100%; in the test on Setaria faberi (SETFA) [8] (setting [20]), 40%; in test [9] (setting [21]) it was 100%; in the test on Solanum nigrum (SOLNI) [10] (setting [22]), 90%; in test [11] (setting [23]) it was 20%; in test [12] (setting [24]), 30%.
Turning to `COC(=O)c1nc(C2CC2)nc(NCc2ccccc2)c1Cl` [Compound 4-60, 5-chloro-2-cyclopropyl-6-methoxycarbonyl-4-phenylmethylaminopyrimidine], the pest or weed control at 1000 g/ha stood at 60% in test [1] (setting [13]); 30% in the test with Setaria faberi (SETFA) [2] (setting [14]); 60% in test [3] (setting [15]); 50% in the test on Solanum nigrum (SOLNI) [4] (setting [16]); 0% in test [5] (setting [17]); 0% in [6] (setting [18]). Also, the pest or weed control at 1000 g/ha in test [7] (setting [19]) came to 100%; in the test with Setaria faberi (SETFA) [8] (setting [20]), 90%; in test [9] (setting [21]) it was 100%; in the test on Solanum nigrum (SOLNI) [10] (setting [22]) it was 100%; in [11] (setting [23]) it was 20%; in test [12] (setting [24]), 90%.
Take `CCN(Cc1ccco1)c1nc(C2CC2)nc(C(=O)OC)c1Cl` [Compound 6-125, 5-Chloro-2-cyclopropyl-4-(N-ethyl-N-furan-2-ylmethyl-amino)-6-methoxycarbonyl-pyrimidine]: the pest or weed control at 1000 g/ha is 90% in [1] (setting [25]); 30% in the test with Setaria faberi (SETFA) [2] (setting [26]); 100% in [3] (setting [27]); 80% with Solanum nigrum (SOLNI) [4] (setting [28]); 50% in test [5] (setting [29]); 40% in test [6] (setting [30]). The pest or weed control at 1000 g/ha in [7] (setting [31]) turned out to be 100%; with Setaria faberi (SETFA) [8] (setting [32]) it was 90%; in test [9] (setting [33]) it was 100%; with Solanum nigrum (SOLNI) [10] (setting [34]) it was 90%; in test [11] (setting [35]), 40%; in [12] (setting [36]), 60%.
